Assay results: US8618289B2 (Ambit Biosciences Corporation, priority 2008, dated 2013)
Where two headings read alike, the source gives them in different places.

Experiments:
[1] = system: A375 cells; assay: cells; conditions: Homo sapiens, A-375, read-out: A375 Viability EC50
[2] = molecular target: T1, RAF kinases (Homo sapiens, UniProt P15056, V600E); conditions: read-out: BRAF V600E Kd; BRAF V600E
[3] = molecular target: RAF kinases (Homo sapiens, UniProt P04049); conditions: read-out: RAF1 Kd; RAF1
[4] = molecular target: RAF kinases (Homo sapiens, UniProt P15056); conditions: read-out: BRAF WT Kd; BRAF WT
[5] = system: MEK1 phosphorylation in the A375 human melanoma cell line; assay: cells; conditions: A-375, read-out: pMEK IC50
[6] = molecular target: T1, RAF kinases; assay: biochemical

T1 sequence (P15056 whole entry V600E): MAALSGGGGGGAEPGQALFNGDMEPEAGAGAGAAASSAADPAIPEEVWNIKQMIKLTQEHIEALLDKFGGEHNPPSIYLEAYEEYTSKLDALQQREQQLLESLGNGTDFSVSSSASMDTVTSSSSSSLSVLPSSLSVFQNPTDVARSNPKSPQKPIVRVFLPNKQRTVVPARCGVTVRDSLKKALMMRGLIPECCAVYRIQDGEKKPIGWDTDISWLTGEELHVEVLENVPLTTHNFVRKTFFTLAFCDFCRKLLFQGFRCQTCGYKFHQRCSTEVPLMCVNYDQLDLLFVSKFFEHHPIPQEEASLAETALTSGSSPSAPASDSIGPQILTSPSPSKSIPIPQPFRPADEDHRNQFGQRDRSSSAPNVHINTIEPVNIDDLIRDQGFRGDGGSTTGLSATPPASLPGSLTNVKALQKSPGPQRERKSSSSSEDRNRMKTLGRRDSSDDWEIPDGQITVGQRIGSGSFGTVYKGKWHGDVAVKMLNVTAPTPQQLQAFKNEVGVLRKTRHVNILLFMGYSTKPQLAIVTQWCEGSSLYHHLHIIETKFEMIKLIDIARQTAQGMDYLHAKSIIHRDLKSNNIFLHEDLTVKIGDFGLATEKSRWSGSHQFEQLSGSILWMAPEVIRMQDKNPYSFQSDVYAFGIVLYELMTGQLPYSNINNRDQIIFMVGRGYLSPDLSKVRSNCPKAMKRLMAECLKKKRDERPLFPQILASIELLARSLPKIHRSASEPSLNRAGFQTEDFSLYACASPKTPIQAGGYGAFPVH
Sequence of RAF kinases (Homo sapiens, UniProt P15056) (P15056 whole entry): as the sequence (P15056 whole entry V600E) above, with E600V counted along it
Sequence of RAF kinases (Homo sapiens, UniProt P04049) (P04049 whole entry): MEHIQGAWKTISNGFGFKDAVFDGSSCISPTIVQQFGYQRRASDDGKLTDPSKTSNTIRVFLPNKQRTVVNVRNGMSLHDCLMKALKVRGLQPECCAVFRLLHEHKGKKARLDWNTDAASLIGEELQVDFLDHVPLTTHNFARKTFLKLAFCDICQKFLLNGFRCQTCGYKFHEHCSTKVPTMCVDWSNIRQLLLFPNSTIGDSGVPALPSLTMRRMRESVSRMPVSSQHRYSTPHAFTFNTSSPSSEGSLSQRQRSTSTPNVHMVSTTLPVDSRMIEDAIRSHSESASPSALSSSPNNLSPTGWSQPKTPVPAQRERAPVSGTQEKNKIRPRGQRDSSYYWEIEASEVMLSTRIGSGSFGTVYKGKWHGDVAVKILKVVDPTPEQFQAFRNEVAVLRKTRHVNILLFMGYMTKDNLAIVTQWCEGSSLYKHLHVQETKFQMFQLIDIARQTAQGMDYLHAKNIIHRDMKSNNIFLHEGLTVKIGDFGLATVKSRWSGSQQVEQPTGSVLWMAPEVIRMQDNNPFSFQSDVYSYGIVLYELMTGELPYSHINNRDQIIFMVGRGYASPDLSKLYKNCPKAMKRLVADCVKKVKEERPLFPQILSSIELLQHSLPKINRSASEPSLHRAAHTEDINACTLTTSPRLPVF

Row | EC50 [1] [µM] | Kd [2] [µM] | Kd [3] [µM] | Kd [4] [µM] | IC50 [5] [µM] | Kd [6] [µM] | SMILES
1 | 0.5 to 1 | < 0.25 | < 0.25 | < 0.25 | < 0.25 |  | COc1cc2ncnc(Sc3cccc(NC(=O)Nc4cc(C(C)(C)C(F)(F)F)no4)c3)c2cc1OC [Ex 268, 1-(3-(6,7-dimethoxyquinazolin-4-ylthio)phenyl)-3-(3-(1,1,1-trifluoro-2-methylpropan-2-yl)isoxazol-5-yl)urea]
2 | < 0.25 | < 0.25 | < 0.25 | < 0.25 | < 0.25 |  | COc1cc2ncnc(Oc3cc(NC(=O)Nc4cc(C(C)(C)F)no4)c(F)cc3F)c2cc1OC [Ex 269, 1-(5-(6,7-dimethoxyquinazolin-4-yloxy)-2,4-difluorophenyl)-3-(3-(2-fluoropropan-2-yl)isoxazol-5-yl)urea]
3 | < 0.25 | < 0.25 | < 0.25 | < 0.25 | < 0.25 |  | COc1cc2ncnc(Oc3cc(NC(=O)Nc4cc(C(C)(C)C)on4)c(F)cc3F)c2cc1OC [Ex 270, 1-(5-tert-butylisoxazol-3-yl)-3-(5-(6,7-dimethoxyquinazolin-4-yloxy)-2,4-difluorophenyl)urea]
4 |  |  | > 1 | > 1 | < 0.25 | 0.5 to 1 | COc1cc2ncnc(Oc3cc(NC(=O)Nc4cc(C(C)(C)C)nn4-c4ccc(C)cc4)c(F)cc3F)c2cc1OC [Ex 272, 1-(3-tert-butyl-1-p-tolyl-1H-pyrazol-5-yl)-3-(5-(6,7-dimethoxyquinazolin-4-yloxy)-2,4-difluorophenyl)urea]
5 | 0.5 to 1 | < 0.25 | < 0.25 | < 0.25 | 0.25 to 0.5 |  | COc1cc2ncnc(Oc3cccc(NC(=O)Nc4cccc(C(C)(C)C#N)c4)c3)c2cc1OC [Ex 278, 1-(3-(2-cyanopropan-2-yl)phenyl)-3-(3-(6,7-dimethoxyquinazolin-4-yloxy)phenyl)urea]
6 | > 1 | < 0.25 | < 0.25 | < 0.25 | 0.25 to 0.5 |  | COc1cc2ncnc(Sc3cccc(NC(=O)Nc4cccc(C(C)(C)C#N)c4)c3)c2cc1OC [Ex 279, 1-(3-(2-cyanopropan-2-yl)phenyl)-3-(3-(6,7-dimethoxyquinazolin-4-ylthio)phenyl)urea]
7 | > 1 | < 0.25 | < 0.25 | < 0.25 | 0.5 to 1 |  | COCCOc1cc2ncnc(Oc3cccc(NC(=O)Nc4cccc(C(C)(C)C#N)c4)c3)c2cc1OC [Ex 280, 1-(3-(2-cyanopropan-2-yl)phenyl)-3-(3-(6-methoxy-7-(2-methoxyethoxy)quinazolin-4-yloxy)phenyl)urea]
8 | > 1 | > 1 | > 1 | > 1 | < 0.25 |  | COc1cc2ncnc(Sc3cccc(NC(=O)Nc4cc(C(C)(C)C)nn4-c4ccc(C)cc4C)c3)c2cc1OC [Ex 284, 1-(3-tert-butyl-1-(2,4-dimethylphenyl)-1H-pyrazol-5-yl)-3-(3-(6,7-dimethoxyquinazolin-4-ylthio)phenyl)urea]
9 | > 1 | < 0.25 | < 0.25 | < 0.25 | > 1 |  | COc1cc2ncnc(Oc3cccc(NC(=O)Nc4cc(C(C)(C)F)no4)c3F)c2cc1OC [Ex 296, 1-(3-(6,7-dimethoxyquinazolin-4-yloxy)-2-fluorophenyl)-3-(3-(2-fluoropropan-2-yl)isoxazol-5-yl)urea]
10 | 0.25 to 0.5 | < 0.25 | < 0.25 | < 0.25 | 0.25 to 0.5 |  | COc1cc2ncnc(Oc3cccc(NC(=O)Nc4cc(C(C)(CF)CF)on4)c3F)c2cc1OC [Ex 297, 1-(5-(1,3-difluoro-2-methylpropan-2-yl)isoxazol-3-yl)-3-(3-(6,7-dimethoxyquinazolin-4-yloxy)-2-fluorophenyl)urea]
11 | < 0.25 | > 1 | > 1 | > 1 | < 0.25 |  | COc1cc2ncnc(Oc3ccc(Cl)c(NC(=O)Nc4cc(C(C)(C)C)nn4-c4ccc(C)cc4)c3)c2cc1OC [Ex 298, 1-(3-tert-butyl-1-p-tolyl-1H-pyrazol-5-yl)-3-(2-chloro-5-(6,7-dimethoxyquinazolin-4-yloxy)phenyl)urea]
12 | 0.25 to 0.5 | > 1 | > 1 | > 1 | < 0.25 |  | COc1cc2ncnc(Oc3ccc(Cl)c(NC(=O)Nc4cc(C(C)(C)C)nn4-c4ccccc4)c3)c2cc1OC [Ex 301, 1-(3-tert-butyl-1-phenyl-1H-pyrazol-5-yl)-3-(2-chloro-5-(6,7-dimethoxyquinazolin-4-yloxy)phenyl)urea]
13 | 0.25 to 0.5 | < 0.25 | < 0.25 | < 0.25 | < 0.25 |  | COc1cc2ncnc(Oc3ccc(F)c(NC(=O)Nc4cc(C(C)(C)C)on4)c3)c2cc1OC [Ex 367, 1-(5-tert-butylisoxazol-3-yl)-3-(5-(6,7-dimethoxyquinazolin-4-yloxy)-2-fluorophenyl)urea]
14 | < 0.25 | < 0.25 | < 0.25 | < 0.25 | < 0.25 |  | COc1cc2ncnc(Oc3cccc(NC(=O)Nc4cc(C5(C(F)(F)F)CC5)on4)c3)c2cc1OC [Ex 377, 1-(3-(6,7-dimethoxyquinazolin-4-yloxy)phenyl)-3-(5-(1-(trifluoromethyl)cyclopropyl)isoxazol-3-yl)urea]
15 | < 0.25 | < 0.25 | < 0.25 | < 0.25 | 0.25 to 0.5 |  | COc1cc2ncnc(Sc3cccc(NC(=O)Nc4cc(C5(C(F)(F)F)CC5)on4)c3)c2cc1OC [Ex 378, 1-(3-(6,7-dimethoxyquinazolin-4-ylthio)phenyl)-3-(5-(1-(trifluoromethyl)cyclopropyl)isoxazol-3-yl)urea]
16 | > 1 | < 0.25 | < 0.25 | < 0.25 | > 1 |  | COc1cc2ncnc(Sc3cccc(NC(=O)Nc4cc(C(F)(F)F)no4)c3)c2cc1OC [Ex 382, 1-(3-(6,7-dimethoxyquinazolin-4-ylthio)phenyl)-3-(3-(trifluoromethyl)isoxazol-5-yl)urea]
17 | 0.25 to 0.5 | < 0.25 | < 0.25 | < 0.25 | 0.25 to 0.5 |  | CCOc1cc2ncnc(Oc3cccc(NC(=O)Nc4cc(C(C)(C)F)no4)c3)c2cc1OC [Ex 385, 1-(3-(7-ethoxy-6-methoxyquinazolin-4-yloxy)phenyl)-3-(3-(2-fluoropropan-2-yl)isoxazol-5-yl)urea]
18 | < 0.25 | < 0.25 | < 0.25 | < 0.25 | < 0.25 |  | CCOc1cc2ncnc(Oc3cccc(NC(=O)Nc4cc(C(C)(CF)CF)on4)c3)c2cc1OC [Ex 386, 1-(5-(1,3-difluoro-2-methylpropan-2-yl)isoxazol-3-yl)-3-(3-(7-ethoxy-6-methoxyquinazolin-4-yloxy)phenyl)urea]
19 | 0.25 to 0.5 | < 0.25 | < 0.25 | < 0.25 | 0.5 to 1 |  | CCOc1cc2ncnc(Sc3cccc(NC(=O)Nc4cc(C(C)(C)F)no4)c3)c2cc1OC [Ex 389, 1-(3-(7-ethoxy-6-methoxyquinazolin-4-ylthio)phenyl)-3-(3-(2-fluoropropan-2-yl)isoxazol-5-yl)urea]
20 | < 0.25 | < 0.25 | < 0.25 | < 0.25 | < 0.25 |  | CCOc1cc2c(Oc3cccc(NC(=O)Nc4cc(C(C)(C)F)no4)c3)ncnc2cc1OC [Ex 392, 1-(3-(6-ethoxy-7-methoxyquinazolin-4-yloxy)phenyl)-3-(3-(2-fluoropropan-2-yl)isoxazol-5-yl)urea]
21 | < 0.25 | < 0.25 | < 0.25 | < 0.25 | < 0.25 |  | CCOc1cc2c(Oc3cccc(NC(=O)Nc4cc(C(C)(CF)CF)on4)c3)ncnc2cc1OC [Ex 393, 1-(5-(1,3-difluoro-2-methylpropan-2-yl)isoxazol-3-yl)-3-(3-(6-ethoxy-7-methoxyquinazolin-4-yloxy)phenyl)urea]
22 | 0.25 to 0.5 | < 0.25 | < 0.25 | < 0.25 | < 0.25 |  | CCOc1cc2c(Sc3cccc(NC(=O)Nc4cc(C(C)(C)F)no4)c3)ncnc2cc1OC [Ex 394, 1-(3-(6-ethoxy-7-methoxyquinazolin-4-ylthio)phenyl)-3-(3-(2-fluoropropan-2-yl)isoxazol-5-yl)urea]
23 | < 0.25 | < 0.25 | < 0.25 | < 0.25 | < 0.25 |  | CCOc1cc2c(Sc3cccc(NC(=O)Nc4cc(C(C)(CF)CF)on4)c3)ncnc2cc1OC [Ex 395, 1-(5-(1,3-difluoro-2-methylpropan-2-yl)isoxazol-3-yl)-3-(3-(6-ethoxy-7-methoxyquinazolin-4-ylthio)phenyl)urea]
24 | 0.25 to 0.5 | < 0.25 | < 0.25 | < 0.25 | 0.25 to 0.5 |  | CCc1cc(NC(=O)Nc2cccc(Sc3ncnc4cc(OC)c(OC)cc34)c2)n(-c2ccccc2)n1 [Ex 399, 1-(3-(6,7-dimethoxyquinazolin-4-ylthio)phenyl)-3-(3-ethyl-1-phenyl-1H-pyrazol-5-yl)urea]
25 | 0.25 to 0.5 | < 0.25 | < 0.25 | < 0.25 | 0.25 to 0.5 |  | CCOc1cc2ncnc(Sc3cccc(NC(=O)Nc4cc(C(C)(CF)CF)on4)c3)c2cc1OC [Example 388, 1-(5-(1,3-difluoro-2-methylpropan-2-yl)isoxazol-3-yl)-3-(3-(7-ethoxy-6-methoxyquinazolin-4-ylthio)phenyl)urea]
